Measurements taken from PubChem BioAssay AID1645864 (Buhrlage Lab, Dana-Farber Cancer Institute and Novartis …, 2021).
pIC50: −log10 of the molar value. Activity calls are given as the source filed them.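 How the source made its calls: active means maximal inhibition of USP17 at or above 30% in the confirmation dose-response, a value not among the printed readouts; inactive means the rest.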

These compounds were tested against Ubiquitin carboxyl-terminal hydrolase 17-like protein 5 (Homo sapiens) (UniProt A8MUK1) (assay: ubiquitin-specific protease 17 inhibitors, concentration series, biochemical, verification of primary actives (AID 1645864)). Details: purified USP17, ubiquitin-rhodamine cleavage fluorescence, 3 h.
Chain of Ubiquitin carboxyl-terminal hydrolase 17-like protein 5 (Homo sapiens) (A8MUK1 whole entry, looked up): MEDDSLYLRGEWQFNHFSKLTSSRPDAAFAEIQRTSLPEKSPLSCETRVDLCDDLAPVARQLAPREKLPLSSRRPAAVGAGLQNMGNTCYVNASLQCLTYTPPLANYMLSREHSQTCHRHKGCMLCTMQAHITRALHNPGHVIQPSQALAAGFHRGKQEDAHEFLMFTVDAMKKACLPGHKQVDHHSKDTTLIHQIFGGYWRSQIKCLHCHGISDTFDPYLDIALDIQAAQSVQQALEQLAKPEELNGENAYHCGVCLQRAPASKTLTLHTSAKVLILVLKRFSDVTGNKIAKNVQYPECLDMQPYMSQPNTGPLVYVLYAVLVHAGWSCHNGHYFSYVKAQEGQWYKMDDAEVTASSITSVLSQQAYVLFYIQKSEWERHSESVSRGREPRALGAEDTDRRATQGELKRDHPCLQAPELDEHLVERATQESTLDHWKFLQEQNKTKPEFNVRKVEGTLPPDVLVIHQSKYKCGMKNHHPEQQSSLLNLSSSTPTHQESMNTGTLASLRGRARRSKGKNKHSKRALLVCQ

| pIC50 | IC50 | Compound |
| --- | --- | --- |
| 4.86 | – | COc1cccc(NC(=O)Nc2nccn(-c3ccc(F)cc3)c2=O)c1 |
| – | > 50 µM (inactive) | Cc1ccccc1C(=O)OCCN1C(=O)c2cccc3c(N4CCCCC4)ccc(c23)C1=O |
| 5.52 | – | COc1ccc(N(CC(=O)NC2CCCCC2)C(=O)c2ccc(-c3ccccc3)[nH]2)cc1OC |
| 4.41 | – | COc1c(O)c(O)c2c(=O)cc(-c3ccc(O)cc3)oc2c1OC |
| – | > 5 µM (inactive) | CCCCn1c(=O)c(CCC(=O)OCC(=O)Nc2ccc3c(c2)OCCO3)nc2ccccc21 |
| 5.16 | – | CC1CCc2sc(NC(=O)c3ccccc3Oc3ccccc3)c(C(N)=O)c2C1 (centres undefined) |
| – | > 50 µM (inactive) | CCn1cnc2c1c(=O)n(CC(=O)NCc1ccccc1Cl)c(=O)n2Cc1ccccc1 |
| 4.65 | – | O=C(Nc1cc(Cl)cc(Cl)c1)c1csnn1 |
| – | > 50 µM (inactive) | O=C(Nc1ccccc1)c1nc2c(s1)CCN(C(=O)c1ccccc1)CC2 |
| 5.36 | – | CCOc1ccc2[nH]c3c(=O)n(CCc4ccc(OC)cc4)cnc3c2c1 |
| 4.53 | – | COc1ccccc1NC(=O)CNC(=O)c1nn(-c2ccc(OC)c(OC)c2)c(=O)c2ccccc12 |
| – | > 50 µM (inactive) | O=C(NC1CCS(=O)(=O)C1)c1ccc(N2CCC(Cc3ccccc3)CC2)nn1 (centres undefined) |
| – | > 50 µM (inactive) | Cc1cccc(C(=O)N2CCc3cc(-c4nc(NC(=O)CNc5ccccc5)sc4C)ccc32)c1 |
| 4.47 | – | CC1=C(c2ccc(F)cc2)S(=O)(=O)NC1=NCC(=O)Nc1cccc(F)c1 |
| 4.49 | – | Cn1cc(NC(=O)Nc2cccc3ccccc23)c2ccccc21 |
| 4.94 | – | Cc1cccc(C(=O)Nc2cccc(SC(C(=O)Nc3ccc(O)c(C(=O)O)c3)c3ccccc3)c2)c1 (centres undefined) |
| – | > 50 µM (inactive) | CN(CCc1ccccc1)c1nccc(N2CCN(C(=O)c3csc(-c4cccnc4)n3)CC2)n1 |

| pIC50 | IC50 | Compound |
| --- | --- | --- |
| 5.68 | – | O=C(Cn1nc2c3c4c(sc3ncn2c1=O)CCCCC4)Nc1ccc(Cl)cc1F |
| 4.57 | – | COc1ccc(OC)c(CCNC(=O)CCC2=NS(=O)(=O)c3ccc(C(F)(F)F)cc3N2)c1 |
| 5.66 | – | O=C(Nc1ccc2ccccc2n1)c1ccc(Cl)cc1 |
| – | > 50 µM (inactive) | CCc1nc(N2CCCC2=O)sc1C(=O)Nc1cccc(C(C)=O)c1 |
| – | > 50 µM (inactive) | COc1cccc(/C=C/c2nc(C#N)c(N3CCN(C(=O)c4cccs4)CC3)o2)c1 |
| – | > 50 µM (inactive) | CC(C(=O)NCc1ccc(F)cc1)n1cccc1C(=O)c1ccccc1 (centres undefined) |
| 4.81 | – | COc1cc(O)c2c(=O)c(-c3ccc(O)cc3)coc2c1 |
| – | > 50 µM (inactive) | FC(F)(F)c1ccccc1CCN1CCc2nc3ncc(Cl)cc3cc2C1 |
| – | > 50 µM (inactive) | CC1Cc2ccccc2N1C(=O)Cn1c(=O)cc(O)c2ccccc21 (centres undefined) |
| – | > 50 µM (inactive) | CN[C@H]1CC2(CCN(C(=O)CCCn3cccn3)CC2)OC[C@]1(C)O |
| 4.33 | – | Cc1nn(CC(=O)NCc2ccccc2F)c2ccccc12 |
| 4.52 | – | CC(OC(=O)c1ccc2c(c1)OCCO2)C(=O)NCC1CCCCC1 (centres undefined) |
| 5.50 | – | COc1ccc(NC(=O)CNC(=O)c2ccc3nc(-n4cccc4)sc3c2)cc1 |
| 4.62 | – | CCNc1oc(-c2ccc(S(=O)(=O)N3CCCCC3)cc2)nc1C#N |
| 5.58 | – | CC(=O)c1ccccc1NC(=O)COc1ccc(-c2ccc(C#N)cc2)cc1 |
| 5.67 | – | O=C(Nc1cccc(C(F)(F)F)c1)c1cc2c(s1)-c1ccccc1OC2 |

Continued, compound first:

| Compound | pIC50 | IC50 |
| --- | --- | --- |
| CCOc1ccc(NC(=O)Cn2c(=O)n(CCC(=O)NCc3ccccc3OC)c(=O)c3ccccc32)cc1 | 5.36 | – |
| CCn1c(SCC(=O)N2c3ccccc3CC2C)nnc1-c1ccc2c(c1)OCCO2 (centres undefined) | 4.46 | – |
| COCCCn1c(C(=O)Nc2ccccc2OC)cc2c(=O)n3ccccc3nc21 | 4.91 | – |
| COc1ccccc1C(=O)N1CCc2[nH]c3ccc(F)cc3c2C1 | – | > 50 µM (inactive) |
| Cc1ccc2c(c1)c(=O)c(C(=O)c1ccccc1)cn2CC(=O)Nc1ccc2c(c1)OCCO2 | 5.50 | – |
| CCCn1c(=O)n(CC(=O)c2ccccc2F)c2c(C(N)=O)nc(-c3ccco3)nc21 | – | > 50 µM (inactive) |
| COc1ccc(-c2cc(-c3ccc(O)cc3)nc(N)c2C#N)cc1OC | – | > 50 µM (inactive) |
| CO[C@H]1[C@@H](O)[C@H](C)O[C@H](O[C@H]2[C@H](Oc3cccc4c(O)c5c(=O)oc6ccc(C)c7c(=O)oc(c34)c5c67)O[C@H](C)[C@H](O)[C@@H]2O)[C@@H]1O | – | > 50 µM (inactive) |
| COCCCn1c(C(=O)NCCc2ccccc2)cc2c(=O)n3cccc(C)c3nc21 | 4.54 | – |
| CCN(C(=O)c1cc2c(s1)-c1ccccc1OC2)c1ccccc1F | – | > 50 µM (inactive) |
| COc1cccc(-n2ccc(=O)c(-c3nc(-c4ccccc4Cl)no3)n2)c1 | – | > 50 µM (inactive) |
| O=C(COc1nc2ccccc2nc1N1CCOCC1)NC(c1ccccc1)c1ccccc1 | – | > 50 µM (inactive) |
| N#C/C(=C\c1ccc(-c2cc(Cl)ccc2Cl)o1)c1nnc2n1CCCCC2 | – | > 50 µM (inactive) |
| CCCc1cc(=O)n2[nH]c(COc3ccccc3)c(-c3ccccc3)c2n1 | 4.38 | – |
| Cc1ccc(S(=O)(=O)N2CCC3(CC2)NC(=O)c2ccccc2N3)cc1C | 4.53 | – |
| COC(=O)c1cc(C#N)c(NCc2ccccc2)nc1C | 4.87 | – |
| COc1cc(NC(=O)c2cc(CN3CCOCC3)on2)cc(OC)c1 | – | > 50 µM (inactive) |
| O=C(Cc1cccs1)Nc1cc(F)c2nc(N3CCOCC3)ccc2c1 | 4.51 | – |
| COc1cc(C2SCC(=O)Nc3c2c(-c2ccccc2)nn3-c2ccccc2)cc(OC)c1OC (centres undefined) | – | > 50 µM (inactive) |
| O=c1c2cnc(N3CCCCC3)nc2ccn1CCc1ccccc1 | 5.73 | – |
| O=C(NC(Cc1ccccc1)c1nc2ccccc2[nH]1)C1CC1 (centres undefined) | 4.30 | – |
| O=C(NCc1ccc(F)cc1)N1CCC2(C1)Nc1cccnc1NC2=NCc1ccccc1 (centres undefined) | – | > 50 µM (inactive) |

| Compound | pIC50 | IC50 |
| --- | --- | --- |
| CC(=O)c1ccc(NC(=O)c2nc3ccccc3nc2N2CCOCC2)cc1 | – | > 50 µM (inactive) |
| COc1ccc(NC(=O)CN2C(=O)c3ccccc3Sc3ccc(C(=O)N4CCCC4)cc32)c(OC)c1 | 4.75 | – |
| Cc1ccc(NC(=O)C2CCN(c3cncnc3N3CCCC3)CC2)cc1 | – | > 50 µM (inactive) |
| Cc1c(-c2nn3c(-c4ccco4)nnc3s2)cccc1[N+](=O)[O-] | 5.52 | – |
| O=[N+]([O-])c1cccc(CSc2nnc(/C=C/c3ccccc3)o2)c1 | – | > 50 µM (inactive) |
| Cc1nc(-c2ccccn2)sc1C(=O)Nc1ccc(C#N)cc1 | – | > 50 µM (inactive) |
| O=C(c1cccnc1)N1CCC2(CC1)CC1(CO2)Nc2ccccc2-n2cccc21 (centres undefined) | 4.67 | – |
| Cc1cc(C)c2cc(C(=O)NC3CCN(Cc4ccccc4)CC3)[nH]c2c1 | 4.83 | – |
| CN(C(=O)c1ccncc1)[C@H]1CC[C@@]2(C)C[C@H](c3ccccc3)C[C@](C)(O2)[C@@H]1O | – | > 50 µM (inactive) |
| CCCCc1nc2sc3c(SCC(=O)Nc4cccc(C)c4)ncnc3c2c2c1CCC2 | 4.86 | – |
| COC(=O)c1cc2c(ccn2C)n1CC(=O)NC1CC1 | – | > 50 µM (inactive) |
| O=C(NC1CCCC1)c1cccc(-c2ccc(N3CCCC3)nc2)c1 | 5.34 | – |
| O=C(Cn1c(=O)n(CCC(=O)N2CC=C(c3ccccc3)CC2)c(=O)c2ccccc21)NCc1ccco1 | 4.51 | – |
| CC(C)NS(=O)(=O)c1cccc2c(NC(=O)C(Cc3ccccc3)NC(=O)c3ccccc3)cccc12 (centres undefined) | – | > 50 µM (inactive) |
| Nc1c(-c2ccc(Cl)cc2)cnc2cc(-c3ccc(Cl)c(Cl)c3)nn12 | 5.47 | – |
| COc1cc(C(=O)Nc2ccc(-c3csc(C)n3)cc2)cc(OC)c1OC | – | > 50 µM (inactive) |
| CC1CCN(S(=O)(=O)c2ccc(C(=O)Nc3ccc(S(N)(=O)=O)cc3)cc2)CC1 | 4.42 | – |
| COc1cccc(C(=O)NCC(=O)Nc2nc3ccccc3[nH]2)c1 | 4.41 | – |
| CCOc1ccccc1C(=O)Oc1ccc2c(C)cc(=O)oc2c1 | 4.58 | – |
| CN(CCCNC(=O)c1cccc2c1SCCC2=O)c1ccccc1 | – | > 50 µM (inactive) |
| Fc1ccc(-c2noc(-c3nnc(NCc4cccnc4)c4ccccc34)n2)cc1 | 5.59 | – |
| Cc1ccc2c(Nc3ccc(CC(=O)O)cc3)c(C(=O)N3CCCC3)cnc2n1 | – | > 50 µM (inactive) |

| Compound | pIC50 | IC50 |
| --- | --- | --- |
| COc1ccc(/C=C/C(=O)Nc2c3c(nc4c2CCC4)CCCC3)cc1 | 4.83 | – |
| Cc1ccc(NC(=O)c2sc(=S)n(CCc3ccccc3)c2N)cc1 | 5.62 | – |
| COc1ccc(N2C(=O)[C@@H]3[C@H]4c5ccccc5C=CN4C(C(=O)Nc4ccc5c(c4)OCO5)[C@@H]3C2=O)cc1 (some centres undefined) | – | > 50 µM (inactive) |
| Cc1ccc(Cn2nnc(-c3ccccc3Cl)n2)cc1 | – | > 50 µM (inactive) |
| CC(C)N1CC2CN(C(=O)c3ccccc3)CCN2Cc2ccccc21 (centres undefined) | – | > 50 µM (inactive) |
| COc1ccc(/C=C\c2nccc3c2[nH]c2ccccc23)cc1 | – | > 50 µM (inactive) |
| Cc1cc(O)c(Oc2cc(C)cc(O)c2O)c(O)c1 | 4.58 | – |
| COc1ccc(C(=O)CSc2nnc(-c3cc4cccc(OC)c4o3)n2C)cc1OC | – | > 50 µM (inactive) |
| Cc1ccc(C(=O)NCC(=O)Nc2nc3ccccc3[nH]2)c(C)c1 | 4.51 | – |
| CS(=O)(=O)NC1CCCN(C(=O)Nc2cccc3ccccc23)C1 (centres undefined) | 4.76 | – |
| O=C1CN(C(=O)COC(=O)CCCN2C(=O)c3cccc4cccc(c34)C2=O)c2ccccc2N1 | 4.31 | – |
| COc1ccc(-n2nnc3c(SCC(=O)Nc4cc(C)on4)ncnc32)cc1 | – | > 50 µM (inactive) |
| CCOC(=O)c1cc2c(ccn2C)n1Cc1cccc2ccccc12 | – | > 50 µM (inactive) |
| O=C(CSc1nnc(CNC(=O)c2ccccc2F)o1)Nc1ccc(OC(F)(F)F)cc1 | 4.48 | – |
| CCOC(=O)c1ccc(NC(=O)Cn2c(=O)n(CC(=O)NCCc3ccc(OC)c(OC)c3)c(=O)c3sccc32)cc1 | 5.60 | – |
| CCOc1ccc(NC(=O)c2cc(-c3ccccc3)c(N3CCOCC3)s2)cc1 | 4.70 | – |
| CN(C)c1ccc(CCN2CCc3nc4cccnc4cc3C2)cc1 | – | > 50 µM (inactive) |
| CCOc1ccc2cc3c(nc2c1)OC(=O)N(Cc1ccc(C)o1)C3 | 5.61 | – |
| CCn1c(COc2cccc(C(F)(F)F)c2)nnc1SCc1ccc(Cl)cc1 | 4.36 | – |
| COc1ccc(C(=O)Nc2sc3c(c2C(=O)NCc2cccnc2)CCCC3)cc1 | 5.21 | – |
| CN1C(=O)COc2ccc(NC(=O)c3cc(-c4ccccc4)on3)cc21 | 5.02 | – |
| O=C1NCCCC1Cc1ccc(-c2cccc(C(=O)N3CCc4ccccc4C3)c2)cc1 (centres undefined) | 4.42 | – |
